Laboratory results as given in patent US8518876B2, “Composition for long-acting peptide analogs” (Pharmaln Corporation, priority 2007, dated 2013).
Entries after “also recorded” stand apart in the source; their conditions may differ. Where a SMILES comes first, the peptide text is derived from it. Bridges are numbered along the chain shown (N, C = ends). The star is where a group is joined. Lauroyl = CCCCCCCCCCCC(=O)*

System: human umbilical chord artery endothelial cells (HUAEC)
Test: Ca-influx after vasopressin analog stimulation of HUAEC, samples pre-incubated in human serum
Assay type: cell-based
Design: key to Activity of Various Vasopressin Analogs, 0 h / Activity of Various Vasopressin Analogs, 1 h / Activity of Various Vasopressin Analogs, 2 h / Activity of Various Vasopressin Analogs, 4 h: “−” for no detectable activity; “+” to “+++” for slight to high activity; “+” to “+++” for slight to high activity; “+” to “+++” for slight to high activity
Description: Ca-influx after vasopressin analog stimulation of human umbilical chord artery endothelial cells (HUAEC) was used to test the biological activity of the various vasopressin analogs. The material used were: 75 cm^2 tissue culture flasks, BD Bioscience, Bedford Mass. (catalogue number 137787) with 0.2 μm vented blue plug seal caps (catalogue number 353136); human umbilical artery endothelial cells (HUAEC), Lonza, Walkersville, Md. (catalogue number CC-2520); EGM-2 fully supplement medium, Lonza, Walkersville, Md. (catalogue number CC-3162); Fura-2 AM, Invitrogen/Molecular Probes, Carlsbad, Calif. (catalogue number F-1221) (Fura-2 AM is a high affinity, intracellular calcium indicator that is ratiometric and UV light-excitable; the acetoxymethyl (AM) ester form is useful for noninvasive intracellular loading as it is cell permeable. Once inside the cell the ester is clipped which renders the Fura-2 molecule cell impermeable and therefore trapped inside.); terlipressin derivatives custom made by Anaspec, San Jose Calif., according to inventors specifications; pooled human serum, Sigma, St. Louis, Mo. (catalogue number H4522); phosphate buffered saline (PBS), Fisher Scientific, Fair Lawn, N.J. (catalogue number BP399-500); trypsin-EDTA solution, 0.25%, Invitrogen/Gibco, Carlsbad, Calif. (catalogue number 25200-072); heat inactivated fetal bovine serum (FBS), Invitrogen/Gibco, Carlsbad, Calif. (catalogue number 10438-026); black polystyrene 96 well flat-bottom assay plates, Corning Inc., Corning, N.Y. (catalogue number 3916); Chameleon plate multilabel detection reader, Hidex, Turku, Finland, distributed by Bioscan, Washington, D.C.; dimethyl sulfoxide (DMSO), Fisher Scientific, Fair Lawn, N.J. (catalogue number D-136-1).
The methods used for tissue or cell culture are as follows: a vial of HUAEC (>0.5×10^6 cells) was thawed and seeded in two 75 cm^2 flasks with 15 ml EGM-2 medium each. Cells were grown over night and medium was changed. Media in the flasks were changed on a Monday, Wednesday, Friday schedule. Cells were split at approximately 80% confluency (using trypsin). Media were removed and the flasks were washed with 10 ml 1×PBS. The PBS was removed, 1.5 ml trypsin-EDTA solution was added and incubated for 5 min at 37° C. Three ml of FBS added and the cells were counted. The cells were centrifuged at 200×G for 5 min, resuspended in EGM-2 medium and distributed into new 75 cm2 flasks @ 3000-5000 cells per cm2.
To prepare for the Ca2+-influx assay, cells were distributed into one black 96 well plate @ 10^5 cells/well. Cells were allowed to adhere overnight and the medium was then removed. Fifty μg Fura-2 was dissolved in 50 μl DMSO and added to 10 ml PBS/2% FBS. The cells were stained with 20 μl of 5 μg/ml Fura-2 in PBS/2% FBS for 2 h, then 180 μl EGM-2 medium supplemented with CaCl2 and glucose was added (10 mM CaCl2 and 11.1 mM glucose final concentrations).
To prepare analogs for testing, 50 uM terlipressin (or derivative) stock solution in DMSO was prepared. […] (placed on ice after incubation).
To measure Ca-influx, Fura-2 fluorescence was measured for 4 repetitions per well at 340 nm ex/510 nm em and 420 nm ex/510 nm em (4 measurement before and 16 after injection of drug. At t=12 sec, 20 μl of terlipressin or derivative was injected as a 500 nM solution (or serum) for a final concentration of 50 nM per well. Fura-2 fluorescence was measured for […] per well at 340 nm ex/510 nm em and 420 nm ex/510 nm em (4 measurements before and 16 after injection of drug). The controls included injected human serum alone, and terlipressin or derivative dissolved in PBS as […]. All measurements were done in hexuplicate.
Data analysis was done using Graphpad Prism version 5.0 software (Graphpad software Inc, San Diego, Calif.). […]

`CCCCCCCCCCCC(=O)NCC(=O)NCC(=O)NCC(=O)N[C@H]1CSSC[C@@H](C(=O)N2CCC[C@H]2C(=O)N[C@@H](CCCCN)C(=O)NCC(N)=O)NC(=O)[C@H](CC(N)=O)NC(=O)[C@H](CCC(N)=O)NC(=O)[C@H](Cc2ccccc2)NC(=O)[C@H](Cc2ccc(O)cc2)NC1=O` [C12TerA, CH3(CH2)10CO-Gly-Gly-Gly-Cys-Tyr-Phe-Gln-Asn-Cys-Pro-Lys-Gly-NH2] (Lauroyl-GGGCYFQNCPKG-NH2; disulfide 4-9) was tested, and the “Activity of Various Vasopressin Analogs, 0 h” value (0 h pre-incubation in pooled human serum at 37° C. (serum present), Ca-influx in HUAEC, 50 nM per well) was “+++”, the “Activity of Various Vasopressin Analogs, 1 h” value (1 h pre-incubation in pooled human serum at 37° C., Ca-influx in HUAEC, 50 nM per well) was “+++” and the “Activity of Various Vasopressin Analogs, 2 h” value (2 h pre-incubation in pooled human serum at 37° C., Ca-influx in HUAEC, 50 nM per well) was “+++”. For the same compound, the “Activity of Various Vasopressin Analogs, 4 h” value (4 h pre-incubation in pooled human serum at 37° C., Ca-influx in HUAEC, 50 nM per well) was “+++” and the “calcium influx after 2-hour incubation in human serum” value (FIG. 11, Fura-2 fluorescence, in words) was “able to induce calcium influx; also recorded: pronounced calcium influx”.
